Measurements as given in ChEMBL document CHEMBL1124342, “N6-bicycloalkyladenosines with unusually high potency and selectivity for the adenosine A1 receptor” (J Med Chem, 1989).

How the values were obtained:
Adenosine receptor A1 = target: T1, Adenosine receptor A1 (Rattus norvegicus, UniProt P25099); experiment: Binding affinity against Adenosine A1 receptor using [3H]CHA in rat brain membranes; assay type: cell membranes
T1 sequence (P25099 whole entry): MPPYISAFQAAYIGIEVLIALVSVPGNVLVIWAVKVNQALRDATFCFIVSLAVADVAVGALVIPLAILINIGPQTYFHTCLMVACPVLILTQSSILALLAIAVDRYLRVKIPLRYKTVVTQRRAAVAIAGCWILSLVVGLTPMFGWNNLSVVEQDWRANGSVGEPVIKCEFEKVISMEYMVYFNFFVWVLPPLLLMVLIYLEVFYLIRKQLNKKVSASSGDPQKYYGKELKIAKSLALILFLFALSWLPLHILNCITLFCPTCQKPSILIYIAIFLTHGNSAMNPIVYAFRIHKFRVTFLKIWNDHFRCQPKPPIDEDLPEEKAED

Adenosine A2 receptor = Adenosine A2 receptor (Rattus norvegicus, UniProt P29276+P30543); experiment: Binding affinity against Adenosine A2 receptor using [3H]NECA with 50 nM CPA in rat striatal brain membranes; assay type: cell membranes, Membrane

| Ki (Adenosine receptor A1) | Ki (Adenosine A2 receptor) | SMILES |
| --- | --- | --- |
| 0.91 nM | – | OC[C@H]1O[C@@H](n2cnc3c(NC4C[C@H]5CC[C@@H]4C5)ncnc32)[C@H](O)[C@@H]1O (some centres undefined) |
| 1.65 nM | – | OC[C@H]1O[C@@H](n2cnc3c(N[C@@H]4C[C@@H]5CC[C@H]4C5)ncnc32)[C@H](O)[C@@H]1O |
| – | 2100 nM | O[C@@H]1[C@H](O)[C@@H](CCl)O[C@H]1n1cnc2c(NC3C[C@H]4CCC3C4)ncnc21 (some centres undefined) |
| – | 3000 nM | O[C@@H]1[C@H](O)[C@@H](CCl)O[C@H]1n1cnc2c(N[C@@H]3C[C@@H]4CC[C@H]3C4)ncnc21 |
| – | 3900 nM | O[C@@H]1[C@H](O)[C@@H](CCl)O[C@H]1n1cnc2c(N[C@H]3C[C@H]4CCC3C4)ncnc21 |
| 0.72 nM | 1870 nM | O[C@@H]1[C@H](O)[C@@H](CCl)O[C@H]1n1cnc2c(NC3CCCC3)ncnc21 |
| 0.42 nM | – | OC[C@H]1O[C@@H](n2cnc3c(NC4CC5CCC4C5)ncnc32)[C@H](O)[C@@H]1O (some centres undefined) |
| 0.3 nM | – | OC[C@H]1O[C@@H](n2cnc3c(N[C@H]4CC5CCC4C5)ncnc32)[C@H](O)[C@@H]1O (single isomer, unassigned) |
